Test results taken from US10760110B2, “Antibiotic testing and screening system” (priority 2017, dated 2020).
Converted amounts (≈) assume the structure as drawn. Read-outs that look alike come from different tables or passages of the source.

Experiments:
Details in all cases: Klebsiella pneumoniae
[1] = tested on: K. pneumoniae NVT1001 strains with carbapenemase plasmids; test: Etest MIC of β-lactams, OmpK35/36 loss, ΔramR and/or carbapenemase (Table 9); assay type: cell-based, Klebsiella pneumoniae
Procedure, shortened: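 Cloned resistance genes in pACYC177 or pACYC184 were electroporated into K. pneumoniae NVT1001. MICs were determined by Etest and rounded up to the next two-fold value. Ceftazidime and cefotaxime against the blaOXA-48 construct were also tested by CLSI broth microdilution, with breakpoints from CLSI 2017 (cephalothin CLSI 2015, moxifloxacin EUCAST 2017).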

[2] = tested on: K. pneumoniae NVT1001 ΔramRΔompK35/36 mutant and its revertants; test: Etest MIC, ΔramRΔompK35/36 mutant and its revertants (Table 7); assay type: cell-based
[3] = tested on: K. pneumoniae NVT1001 and its ΔompK35/36 and/or ΔramR mutants; test: Etest MIC, OmpK35/36 loss and AcrAB-TolC overexpression (ΔramR) strains (Table 6); assay type: cell-based, Klebsiella pneumoniae
Procedure, shortened: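 MICs were read by Etest strip following the manufacturer's instructions, and values falling between standard two-fold dilutions were rounded up to the next two-fold step. Ceftazidime and cefotaxime were also tested by CLSI broth microdilution and interpreted against CLSI 2017 breakpoints; cephalothin used CLSI 2015 and moxifloxacin EUCAST 2017.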

`C[C@@H](O)[C@H]1C(=O)N2C(C(=O)O)=C(SCCN=CN)C[C@H]12` [Imipenem] gave an MIC ([1]; IMP-8 on pACYC177, WT (NVT1001), read-out: MIC) of 4 µg/mL, an MIC ([1]; IMP-8 on pACYC177, Δ35 (ΔompK35 mutant)) of 4 µg/mL and an MIC ([1]; IMP-8 on pACYC177, Δ35/36 (ΔompK35/36 mutant)) greater than 32 µg/mL. It also gave an MIC ([1]; IMP-8 on pACYC177, Δ36 (ΔompK36 mutant)) of 8 µg/mL, an MIC ([1]; IMP-8 on pACYC177, ΔramR mutant) of 4 µg/mL and an MIC ([1]; IMP-8 on pACYC177, ΔramRΔ35 (ΔramRΔompK35 mutant)) of 4 µg/mL. It also gave an MIC ([1]; IMP-8 on pACYC177, ΔramRΔ35/36 (ΔramRΔompK35/36 mutant)) greater than 32 µg/mL, an MIC ([1]; IMP-8 on pACYC177, ΔramRΔ36 (ΔramRΔompK36 mutant)) greater than 32 µg/mL and an MIC ([1]; KPC-2 on pACYC177, WT (NVT1001), read-out: MIC) greater than 32 µg/mL. The MIC ([1]; KPC-2 on pACYC177, Δ35 (ΔompK35 mutant)) was greater than 32 µg/mL, the MIC ([1]; KPC-2 on pACYC177, Δ35/36 (ΔompK35/36 mutant)) was greater than 32 µg/mL and the MIC ([1]; KPC-2 on pACYC177, Δ36 (ΔompK36 mutant)) was greater than 32 µg/mL. It also gave an MIC ([1]; KPC-2 on pACYC177, ΔramR mutant) greater than 32 µg/mL, an MIC ([1]; KPC-2 on pACYC177, ΔramRΔ35 (ΔramRΔompK35 mutant)) greater than 32 µg/mL and an MIC ([1]; KPC-2 on pACYC177, ΔramRΔ35/36 (ΔramRΔompK35/36 mutant)) greater than 32 µg/mL. For the same molecule, the MIC ([1]; KPC-2 on pACYC177, ΔramRΔ36 (ΔramRΔompK36 mutant)) was greater than 32 µg/mL, the MIC ([1]; KPC-3 on pACYC177, WT (NVT1001), read-out: MIC) was 32 µg/mL and the MIC ([1]; KPC-3 on pACYC177, Δ35 (ΔompK35 mutant)) was greater than 32 µg/mL. It also gave an MIC ([1]; KPC-3 on pACYC177, Δ35/36 (ΔompK35/36 mutant)) greater than 32 µg/mL, an MIC ([1]; KPC-3 on pACYC177, Δ36 (ΔompK36 mutant)) greater than 32 µg/mL and an MIC ([1]; KPC-3 on pACYC177, ΔramR mutant) of 32 µg/mL. It also gave an MIC ([1]; KPC-3 on pACYC177, ΔramRΔ35 (ΔramRΔompK35 mutant)) of 32 µg/mL, an MIC ([1]; KPC-3 on pACYC177, ΔramRΔ35/36 (ΔramRΔompK35/36 mutant)) greater than 32 µg/mL and an MIC ([1]; KPC-3 on pACYC177, ΔramRΔ36 (ΔramRΔompK36 mutant)) greater than 32 µg/mL. The MIC ([1]; NDM-1 on pACYC177, WT (NVT1001), read-out: MIC) was greater than 32 µg/mL, the MIC ([1]; NDM-1 on pACYC177, Δ35 (ΔompK35 mutant)) was greater than 32 µg/mL and the MIC ([1]; NDM-1 on pACYC177, Δ35/36 (ΔompK35/36 mutant)) was greater than 32 µg/mL. The MIC ([1]; NDM-1 on pACYC177, Δ36 (ΔompK36 mutant)) was greater than 32 µg/mL, the MIC ([1]; NDM-1 on pACYC177, ΔramR mutant) was greater than 32 µg/mL and the MIC ([1]; NDM-1 on pACYC177, ΔramRΔ35 (ΔramRΔompK35 mutant)) was greater than 32 µg/mL. It also gave an MIC ([1]; NDM-1 on pACYC177, ΔramRΔ35/36 (ΔramRΔompK35/36 mutant)) greater than 32 µg/mL, an MIC ([1]; NDM-1 on pACYC177, ΔramRΔ36 (ΔramRΔompK36 mutant)) greater than 32 µg/mL and an MIC ([1]; OXA-48 on pACYC177, WT (NVT1001), read-out: MIC) of 4 µg/mL. The MIC ([1]; OXA-48 on pACYC177, Δ35 (ΔompK35 mutant)) was 4 µg/mL, the MIC ([1]; OXA-48 on pACYC177, Δ35/36 (ΔompK35/36 mutant)) was greater than 32 µg/mL and the MIC ([1]; OXA-48 on pACYC177, Δ36 (ΔompK36 mutant)) was 8 µg/mL. For the same molecule, the MIC ([1]; OXA-48 on pACYC177, ΔramR mutant) was 4 µg/mL, the MIC ([1]; OXA-48 on pACYC177, ΔramRΔ35 (ΔramRΔompK35 mutant)) was 4 µg/mL and the MIC ([1]; OXA-48 on pACYC177, ΔramRΔ35/36 (ΔramRΔompK35/36 mutant)) was greater than 32 µg/mL. The MIC ([1]; OXA-48 on pACYC177, ΔramRΔ36 (ΔramRΔompK36 mutant)) was greater than 32 µg/mL, the MIC ([1]; VIM-1 on pACYC177, WT (NVT1001), read-out: MIC) was 16 µg/mL and the MIC ([1]; VIM-1 on pACYC177, Δ35 (ΔompK35 mutant)) was 32 µg/mL. For the same molecule, the MIC ([1]; VIM-1 on pACYC177, Δ35/36 (ΔompK35/36 mutant)) was greater than 32 µg/mL, the MIC ([1]; VIM-1 on pACYC177, Δ36 (ΔompK36 mutant)) was greater than 32 µg/mL and the MIC ([1]; VIM-1 on pACYC177, ΔramR mutant) was 16 µg/mL. For the same molecule, the MIC ([1]; VIM-1 on pACYC177, ΔramRΔ35 (ΔramRΔompK35 mutant)) was 16 µg/mL, the MIC ([1]; VIM-1 on pACYC177, ΔramRΔ35/36 (ΔramRΔompK35/36 mutant)) was greater than 32 µg/mL and the MIC ([1]; VIM-1 on pACYC177, ΔramRΔ36 (ΔramRΔompK36 mutant)) was greater than 32 µg/mL. It also gave an MIC ([1]; no supplemental plasmid, WT (NVT1001), read-out: MIC) of 0.5 µg/mL, an MIC ([1]; no supplemental plasmid, Δ35 (ΔompK35 mutant)) of 0.5 µg/mL and an MIC ([1]; no supplemental plasmid, Δ35/36 (ΔompK35/36 mutant)) of 0.5 µg/mL. It also gave an MIC ([1]; no supplemental plasmid, Δ36 (ΔompK36 mutant)) of 0.5 µg/mL, an MIC ([1]; no supplemental plasmid, ΔramR mutant) of 0.25 µg/mL and an MIC ([1]; no supplemental plasmid, ΔramRΔ35 (ΔramRΔompK35 mutant)) of 0.25 µg/mL. It also gave an MIC ([1]; no supplemental plasmid, ΔramRΔ35/36 (ΔramRΔompK35/36 mutant)) of 0.5 µg/mL, an MIC ([1]; no supplemental plasmid, ΔramRΔ36 (ΔramRΔompK36 mutant)) of 0.5 µg/mL and an MIC ([2]; ΔramRΔompK35/36::ompK35/36 revertant) of 0.25 µg/mL. For the same molecule, the MIC ([2]; ΔramRΔompK35/36::ompK35 revertant) was 0.25 µg/mL, the MIC ([2]; ΔramRΔompK35/36::ompK36 revertant) was 0.25 µg/mL and the MIC ([2]; ΔramRΔompK35/36::ramR revertant) was 0.5 µg/mL. It also gave an MIC ([2]; ΔramRΔompK35/36::ramR::ompK35/36 revertant) of 0.5 µg/mL, an MIC ([2]; ΔramRΔompK35/36::ramR::ompK35 revertant) of 0.25 µg/mL and an MIC ([2]; ΔramRΔompK35/36::ramR::ompK36 revertant) of 0.25 µg/mL. The MIC ([2]; ΔramRΔompK35/36 mutant) was 0.5 µg/mL, the MIC ([3]; WT, NVT1001, read-out: MIC) was 0.5 µg/mL (≈ 1.67 µM) and the MIC ([3]; Δ35, ΔompK35 mutant) was 0.5 µg/mL (≈ 1.67 µM). The MIC ([3]; Δ35/36, ΔompK35/36 mutant) was 0.5 µg/mL (≈ 1.67 µM), the MIC ([3]; Δ36, ΔompK36 mutant) was 0.5 µg/mL (≈ 1.67 µM) and the MIC ([3]; ΔramR mutant) was 0.25 µg/mL (≈ 0.835 µM). It also gave an MIC ([3]; ΔramRΔ35, ΔramRΔompK35 mutant) of 0.25 µg/mL (≈ 0.835 µM), an MIC ([3]; ΔramRΔ35/36, ΔramRΔompK35/36 mutant) of 0.5 µg/mL (≈ 1.67 µM) and an MIC ([3]; ΔramRΔ36, ΔramRΔompK36 mutant) of 0.5 µg/mL (≈ 1.67 µM).
